US20070048360A1, “Pharmaceutical compositions with melting point depressant agents and method of making same” (priority 2005, published 2007)
Like-named read-outs stand apart in the source and are kept apart here.

Legend:
[1] = cited from earlier work
[2] = Aqueous blending of bulk powdered CFI and active drug, visual and microscopic check; format: physicochemical
[3] = oral; cited from earlier work

## CC(=O)CCc1ccc2c(c1)OCO2 [4-(1,3-benzodioxol-5-yl)butan-2-one]
[1]
  Log P: Log P: 1.15

## COc1ccccc1OCCNCC(O)COc1cccc2[nH]c3ccccc3c12 (stereo not drawn) [CAR, Carvedilol]
[2]; 30% ethanol
  aspect of composition API:PES 1:1 in ethanol/purified water: stable oil droplets
Drug 1% w/w
  ethanol content of hydro-alcoholic mixture needed to solubilize the drug: at least 80 % by weight of the total mixture

## Clc1cccc(Cl)c1N=C1NCCN1 [CLO, clonidine]
[2]; 5% ethanol
  aspect of composition API:PES 1:1 in ethanol/purified water: stable oil droplets
[2]; 10% ethanol
  aspect of composition API:PES 1:1 in ethanol/purified water: stable oil droplets
Drug 0.5% w/w
  ethanol content of hydro-alcoholic mixture needed to solubilize the drug: at least 50 % by weight of the total mixture

## CN1C2CCCC1CC(NC(=O)c1nn(C)c3ccccc13)C2 (stereo not drawn) [GRA, Granisetron]
[2]; 30% ethanol
  aspect of composition API:PES 1:1 in ethanol/purified water: stable oil droplets
Drug 0.5% w/w
  ethanol content of hydro-alcoholic mixture needed to solubilize the drug: at least 40 % by weight of the total mixture

## CC(C)Cc1ccc(C(C)C(=O)O)cc1 (stereo not drawn) [Ibuprofen, ibuprofen]
Drug 1% w/w
  ethanol content of hydro-alcoholic mixture needed to solubilize the drug: at least 50 % by weight of the total mixture

## c1ccc2c(c1)CC1COCOC21 (stereo not drawn) [Indeno-m-dioxin tetrahydro]
[1]
  Log P: Log P: 1.33

## CCN(CC)CC(=O)Nc1c(C)cccc1C [Lidocaine, lidocaine]
[2]; lidocaine 2.50% w/w and PES 2.50% w/w in water, ambient temperature in the dark
  storage period over which aspect (transparent droplets, no crystallization) was maintained: > 13 month

## CCN(CC)CC#CCOC(=O)C(O)(c1ccccc1)C1CCCCC1 (stereo not drawn) [OXY, oxybutynin]
[2]; 30% ethanol
  aspect of composition API:PES 1:1 in ethanol/purified water: small transparent droplets easily re-suspended

## CC(C)(C)C1CCCCC1O (stereo not drawn) [Ortho tertiary butyl cyclohexanol]
[1]
  Log P: Log P: 3.3-3.4

## O=C(OCCc1ccccc1)c1ccccc1O [Phenyl ethyl salicylate]
[1]
  Log P: Log P: 4.31

## CCCN(CCC)CCc1cccc2c1CC(=O)N2 [ROP, Ropinirole]
[2]; 15% ethanol
  aspect of composition API:PES 1:1 in ethanol/purified water: stable oil droplets
Drug 1% w/w
  ethanol content of hydro-alcoholic mixture needed to solubilize the drug: at least 40 % by weight of the total mixture

## C[C@]12CC[C@H]3[C@@H](CCC4=CC(=O)CC[C@@]43C)[C@@H]1CC[C@@H]2O [TES, Testosterone]
[2]
  aspect of composition API:PES 1:1 in ethanol/purified water: stable oil droplets

## NCCCC(O)(P(=O)(O)O)P(=O)(O)O [sodium alendronate]
[3]
  fraction of the drug absorbed when administered orally: about 0.6%
